# Experimental data reported in US6107308A, “Piperidine derivatives” (Kowa Co., Ltd., priority 1997, dated 2000).
# Where a name gives a salt, the structure may show the parent alone.
# Experiments:
# [1] = molecular target: histamine-induced contraction of guinea pig ileum (Cavia porcellus, UniProt P31389); assay: Antihistaminic action (in vitro test), isotonic contraction of isolated ileum in response to histamine; conditions: histamine 10^-8 to 10^-4 M, 30 min after addition of test compound; for Kb: read-out: Anti-histaminic action pA2 (converted)
# Experimental: (§1) Antihistaminic action and antileukotriene action (in vitro test):
# (§2) A guinea pig was subjected to ileectomy, and the ileum was cut to have a length of about 2 cm. Each piece of ileum was suspended in a Tyrode's buffer placed in a 20-ml organ bath. Isotonic contraction in response to histamine or leukotriene D4 was recorded by use of a recording apparatus. The Tyrode's buffer was aerated with a gas mixture (95% O2 -5% CO2) while the temperature of the buffer was maintained at 30° C. Antihstaminic activity was tested by adding 10^-8 to 10^-4 M histamine to the organ bath and obtaining a dose-response curve. After washing with a buffer several times, a test compound was added to the organ bath. Thirty minutes later, another dose-response curve of histamine was obtained. For the test of antileukotriene activity, effects exerted by addition of a 10^-5 M test compound on the contraction included with 10^-8 M LTD4 was investigated.
# [2] = tested on: leukotriene D4 (LTD4)-induced contraction of guinea pig ileum; assay: Antileukotriene action (in vitro test), isotonic contraction of isolated ileum induced with LTD4; conditions: Cavia porcellus; test compound 10^-5 M, contraction with 10^-8 M LTD4; read-out: LTD4 action (inhibition exerted by a test compound at 10^-5 M)
# Experimental: as §1, §2
# [3] = molecular target: T1, LTD4 Receptor (Cavia porcellus, UniProt Q2NNR5); assay: LTD4 Receptor binding inhibitory test ([^3 H] leukotriene D4); parameters: species or system guinea pig
# T1 construct: guinea pig lung protein; from tissue; host or cells: guinea pig lung
# T1 sequence (Q2NNR5 1-340): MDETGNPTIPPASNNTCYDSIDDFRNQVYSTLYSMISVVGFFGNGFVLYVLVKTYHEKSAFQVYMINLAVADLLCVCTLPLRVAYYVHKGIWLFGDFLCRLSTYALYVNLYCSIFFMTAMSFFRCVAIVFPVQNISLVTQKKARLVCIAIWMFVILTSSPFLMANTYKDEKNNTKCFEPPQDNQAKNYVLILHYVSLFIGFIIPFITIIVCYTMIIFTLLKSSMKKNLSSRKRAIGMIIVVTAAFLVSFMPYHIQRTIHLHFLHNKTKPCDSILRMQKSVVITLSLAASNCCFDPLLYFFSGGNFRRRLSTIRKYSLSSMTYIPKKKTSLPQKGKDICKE
# Experimental: LTD4 Receptor binding inhibitory test:
# Reaction was stopped by addition of ice-cold Tris-HCl/NaCl (10 mM/100 mM, pH 7.5) buffer, and immediately thereafter, the reaction mixture was filtered by use of a Wattman CF/C filter. The filter was washed twice, each time with 20 ml ice-cold buffer. Radioactivity of the residue was measured by use of a liquid scintillation counter. […] In a saturation test, 2 μM leukotriene D4 was used for the measurement of the amount of non-specific binding.
# [4] = molecular target: H1 receptor (Cavia porcellus, UniProt P31389); assay: biochemical; assay type: binding, guinea pig
# Experimental: H1 receptor binding inhibitory test:
# Reaction was stopped by addition of ice-cold phosphate buffer, and immediately thereafter, the reaction mixture was filtered by use of a Wattman CF/C filter. The filter was washed twice, each time with 20 ml ice-cold buffer. Radioactivity of the residue was measured by use of a liquid scintillation counter. From the value as obtained when a test compound was not added and values as obtained when the test compound was added at different concentrations, there was determined a dose-response curve representing suppression action of the test compound, from which a 50% inhibitory concentration (IC50) was obtained. Based on the IC50 value and by use of the Cheng-Prusoff equation, a dissociation constant (KD) was calculated (Table 4). In a saturation test, 10^-4 M R(-)-dimethindene was used for the measurement of the amount of non-specific binding.
# [5] = tested on: leukotriene D4 (LTD4)-induced contraction of guinea pig ileum; assay: Antileukotriene action (in vitro test), isotonic contraction of isolated ileum induced with LTD4; conditions: Cavia porcellus; contraction with 10^-8 M LTD4
# [6] = molecular target: T2, H1 receptor (Mus musculus, UniProt P70174); assay: Test on migration into the brain (ex vivo [^3 H]mepyramine binding in mouse brain after intraperitoneal administration); parameters: species or system mice; conditions: ip
# T2 construct: from tissue; host or cells: mouse brain homogenate after intraperitoneal dosing
# Experimental: Test on migration into the brain:
# The test was performed in accordance with a method described by Zang. […] Briefly, several mice each weighing 20-23 g were provided, and to each mouse was intraperitoneally administered a test sample having a predetermined concentration. One hour later, each mouse was sacrificed and its brain was removed. The brain tissue was mixed with 30 mM Na, K phosphate buffer (pH 7.5) so as to attain a concentration of 40 ml/g wet weight, and the mixture was homogenized. […] The mixture was incubated at 37° C. for 50 minutes. Subsequently, reaction was stopped by addition of ice-cold phosphate buffer, and immediately thereafter, the reaction mixture was filtered by use of a Wattman CF/C filter. The filter was washed twice, each time with 20 ml ice-cold buffer. Radioactivity of the residue was measured by use of a liquid scintillation counter. […] The cerebral migration index, BPindex, was calculated from the following equation.
# BPindex=IC50 (mg/kg)/dissociation constant for H1 recepters (nM)
# Sequence of histamine-induced contraction of guinea pig ileum (P31389 whole entry): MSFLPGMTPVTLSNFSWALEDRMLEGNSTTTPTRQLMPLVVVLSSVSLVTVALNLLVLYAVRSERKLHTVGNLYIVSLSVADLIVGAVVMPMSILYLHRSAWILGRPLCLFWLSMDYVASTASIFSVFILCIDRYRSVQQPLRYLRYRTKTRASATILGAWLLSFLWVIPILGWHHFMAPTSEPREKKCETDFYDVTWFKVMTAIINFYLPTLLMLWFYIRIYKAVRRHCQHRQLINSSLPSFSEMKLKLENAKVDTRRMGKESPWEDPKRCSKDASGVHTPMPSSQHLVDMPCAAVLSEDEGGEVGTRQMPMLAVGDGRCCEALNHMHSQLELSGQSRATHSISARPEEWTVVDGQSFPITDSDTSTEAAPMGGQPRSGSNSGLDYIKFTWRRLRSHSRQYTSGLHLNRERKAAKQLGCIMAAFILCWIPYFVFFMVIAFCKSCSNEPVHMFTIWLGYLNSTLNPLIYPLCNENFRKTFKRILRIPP
# Sequence of H1 receptor (Cavia porcellus, UniProt P31389) (P31389 whole entry): as above
# T2 sequence (P70174 whole entry): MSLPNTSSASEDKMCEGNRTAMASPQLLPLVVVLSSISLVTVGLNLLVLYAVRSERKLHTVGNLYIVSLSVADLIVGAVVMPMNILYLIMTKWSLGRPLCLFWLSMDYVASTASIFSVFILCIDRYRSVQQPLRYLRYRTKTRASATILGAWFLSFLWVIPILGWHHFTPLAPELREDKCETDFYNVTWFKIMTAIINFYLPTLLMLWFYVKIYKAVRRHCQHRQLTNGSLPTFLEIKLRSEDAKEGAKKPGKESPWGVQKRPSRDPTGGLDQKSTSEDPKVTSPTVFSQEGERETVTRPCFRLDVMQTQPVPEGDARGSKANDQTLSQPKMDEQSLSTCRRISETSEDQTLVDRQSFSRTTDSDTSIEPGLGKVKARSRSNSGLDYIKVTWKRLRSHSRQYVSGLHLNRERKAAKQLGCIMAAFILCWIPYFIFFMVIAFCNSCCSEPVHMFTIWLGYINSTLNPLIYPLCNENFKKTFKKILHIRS
SMILES,Kb [1] [nM],inhibition at 10 µM [2] [%],Kd [3] [nM],Kd [4] [nM],IC50 [5] [nM],"selectivity ratio at 1 h ([6]; brain, BPindex = IC50 (mg/kg)/dissociation constant for H1 receptors (nM), read-out: cerebral migration index, BP index)","ED50 ([6]; 1 h, read-out: IC50 (ex vivo)) [mg/kg]",Anti-histaminic action pD'2 [1]
"O=C1NCCCc2cc(OCCCN3CCC(=Cc4ccc5ccccc5n4)CC3)ccc21 [Example 13, 7-[3-[4-(2-Quinolylmethylene)piperidino]propoxy]-2,3,4,5-tetrahydro-1H-benz[c]azepin-1-one oxalate]",0.174,39,19000,1.15,,,,
"Cc1ccc(OCCCN2CCC(=Cc3ccc4ccccc4n3)CC2)c2c1NC(=O)CC2 [Example 3, 8-Methyl-5-[3-[4-(2-quinolylmethylene)piperidino]propoxy]-1,2,3,4-tetrahydroquinolin-2-one]",0.141,77,55000,,,,,
"Cc1ccc(OCCN2CCC(Cc3ccc4ccccc4n3)CC2)c2ccc(=O)[nH]c12 [Example 25, 8-Methyl-5-[2-[4-(2-quinolylmethyl)-piperidino]ethoxy]carbostyryl]",0.468,88,,,3400,,,
"Cc1ccc(OCCCN2CCC(Cc3ccc4ccccc4n3)CC2)c2c1NC(=O)C2(C)C [Example 15, 4-[3-[4-(2-quinolylmethyl)piperidino]-propoxy]-3,3,7-trimethyl-2,3-dihydro-1H-indol-2-one]",0.324,19,8060,3.1,,,,
"Cc1ccc(OCCN2CCC(=Cc3ccc4ccccc4n3)CC2)c2ccc(=O)[nH]c12 [Example 10, 8-Methyl-5-[2-[4-(2-quinolylmethylene)-piperidino]ethoxy]carbostyryl]",0.0832,61,9860,0.0351,,930,33,
"Cc1ccc(OCCCN2CCC(=Cc3ccc4ccccc4n3)CC2)c2ccc(=O)[nH]c12 [Example 11, 8-Methyl-5-[3-[4-(2-quinolylmethylene)-piperidino]propoxy]carbostyryl]",0.219,39,20000,,,,,
"O=C1CCc2cc(OCCCN3CCC(=Cc4ccc5ccccc5n4)CC3)ccc2N1 [Example 5, 6-[3-[4-(2-Quinolylmethylene)piperidino]propoxy]-1,2,3,4-tetrahydroquinolin-2-one]",,,54400,0.0469,,,,
"O=C1CCc2ccc(OCCCN3CCC(=Cc4ccc5ccccc5n4)CC3)cc2N1 [Example 9, 7-[3-[4-(2-Quinolylmethylene)piperidino]propoxy]-1,2,3,4-tetrahydroquinolin-2-one oxalate]",2.95,15,,,,,,
"C(=C1CCN(CCCOc2ccc3c(c2)CCCc2nnnn2-3)CC1)c1ccc2ccccc2n1 [Example 14, 8-[3-[4-(2-Quinolylmethylene)piperidino]propoxy]-5,6-dihydro-4H-tetrazolo[1,5-a]benz[b]azepine oxalate]",0.0525,40,98900,,,,,
"O=C1CCc2cccc(OCCCN3CCC(=Cc4ccc5ccccc5n4)CC3)c2N1 [Example 8, 8-[3-[4-(2-Quinolylmethylene)piperidino]propoxy]-1,2,3,4-tetrahydroquinolin-2-one oxalate]",0.224,30,,,,,,
"Cc1ccc(OCCCN2CCC(Cc3ccc4ccccc4n3)CC2)c2ccc(=O)[nH]c12 [Example 26, 8-Methyl-5-[3-[4-(2-quinolylmethyl)-piperidino]propoxy]carbostyryl]",0.162,29,,,,,,
"Cc1ccc(OCCN2CCC(Cc3ccc4ccccc4n3)CC2)c2c1NC(=O)CC2 [Example 17, 8-Methyl-5-[2-[4-(2-quinolylmethyl)piperidino]ethoxy]-1,2,3,4-tetrahydroquinolin-2-one]",0.166,23,,,,,,
"O=C1CCc2cc(OCCN3CCC(=Cc4ccc5ccccc5n4)CC3)ccc2N1 [Example 4, 6-[2-[4-(2-Quinolylmethylene)piperidino]ethoxy]-1,2,3,4-tetrahydroquinolin-2-one]",,,12700,164,,,,
"O=C1CSc2cc(OCCCN3CCC(=Cc4ccc5ccccc5n4)CC3)ccc2N1 [Example 2, 7-[3-[4-(2-Quinolylmethylene)piperidino]propoxy]-3,4-dihydro-2H-1,4-benzothiazin-3-one]",,21,,,,,,8.22
"O=C1CSc2cc(OCCCN3CCC(Cc4ccc5ccccc5n4)CC3)ccc2N1 [Example 16, 7-[3-[4-(2-Quinolylmethyl)piperidino]propoxy]-3,4-dihydro-2H-1,4-benzothiazin-3-one]",,15,,,,,,8.01
"O=C1CCCc2cc(OCCCN3CCC(=Cc4ccc5ccccc5n4)CC3)ccc2N1 [Example 12, 7-[3-[4-(2-Quinolylmethylene)piperidino]propoxy]-2,3,4,5-tetrahydro-1H-benz[b]azepin-2-one oxalate]",0.178,12,15800,0.0238,,,,
